Assay results from patent US9822110B2, “Sulfonamide derivative and pharmaceutical use thereof” (EA Pharma Co., Ltd., priority 2013, dated 2017).
pIC50: −log10 of the molar value.

molecular target: T1, MAdCAM-1/α4β7 integrin (Homo sapiens, UniProt P13612+P26010); experiment: Evaluation test (1) for MAdCAM-1/α4β7 integrin binding inhibitory activity in the presence of serum (RPMI-8866 cell binding to MAdCAM-1/Fc); type: cell-based; details: RPMI-8866 cells, recombinant mouse MAdCAM-1/Fc, human serum at final concentration of 50%; read-out: α4β7 Serum Activity rank when α4β7 serum was added
T1 construct: a human B-cell line known to express α4β7 integrin; endogenous in cells; host or cells: RPMI-8866 (human B-cell line)
T1 sequence (P13612 34-1032): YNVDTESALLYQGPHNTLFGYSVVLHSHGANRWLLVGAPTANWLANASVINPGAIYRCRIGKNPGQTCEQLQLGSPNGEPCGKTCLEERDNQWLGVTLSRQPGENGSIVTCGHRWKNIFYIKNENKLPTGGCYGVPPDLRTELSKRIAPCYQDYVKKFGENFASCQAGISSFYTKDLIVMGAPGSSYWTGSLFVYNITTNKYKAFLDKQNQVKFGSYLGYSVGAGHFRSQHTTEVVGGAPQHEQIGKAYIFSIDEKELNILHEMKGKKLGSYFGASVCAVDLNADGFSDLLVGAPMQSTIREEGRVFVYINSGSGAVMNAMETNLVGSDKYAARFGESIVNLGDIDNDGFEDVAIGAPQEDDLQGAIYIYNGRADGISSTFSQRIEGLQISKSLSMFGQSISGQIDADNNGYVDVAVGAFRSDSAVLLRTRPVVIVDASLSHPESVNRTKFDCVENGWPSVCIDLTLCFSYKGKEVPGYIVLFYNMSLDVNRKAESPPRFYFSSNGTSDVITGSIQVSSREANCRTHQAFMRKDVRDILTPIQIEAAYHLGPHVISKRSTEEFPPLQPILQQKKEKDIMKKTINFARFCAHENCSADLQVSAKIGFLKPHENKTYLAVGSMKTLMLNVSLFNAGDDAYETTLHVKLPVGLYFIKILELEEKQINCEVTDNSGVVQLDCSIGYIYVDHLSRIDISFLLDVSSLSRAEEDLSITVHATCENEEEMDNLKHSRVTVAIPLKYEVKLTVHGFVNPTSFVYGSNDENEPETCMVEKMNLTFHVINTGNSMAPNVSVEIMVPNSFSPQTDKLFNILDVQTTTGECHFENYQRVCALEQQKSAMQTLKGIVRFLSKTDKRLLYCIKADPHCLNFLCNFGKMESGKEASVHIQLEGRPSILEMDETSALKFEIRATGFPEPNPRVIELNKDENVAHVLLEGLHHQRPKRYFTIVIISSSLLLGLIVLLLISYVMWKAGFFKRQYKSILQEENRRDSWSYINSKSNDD
T1 sequence (P26010 20-798): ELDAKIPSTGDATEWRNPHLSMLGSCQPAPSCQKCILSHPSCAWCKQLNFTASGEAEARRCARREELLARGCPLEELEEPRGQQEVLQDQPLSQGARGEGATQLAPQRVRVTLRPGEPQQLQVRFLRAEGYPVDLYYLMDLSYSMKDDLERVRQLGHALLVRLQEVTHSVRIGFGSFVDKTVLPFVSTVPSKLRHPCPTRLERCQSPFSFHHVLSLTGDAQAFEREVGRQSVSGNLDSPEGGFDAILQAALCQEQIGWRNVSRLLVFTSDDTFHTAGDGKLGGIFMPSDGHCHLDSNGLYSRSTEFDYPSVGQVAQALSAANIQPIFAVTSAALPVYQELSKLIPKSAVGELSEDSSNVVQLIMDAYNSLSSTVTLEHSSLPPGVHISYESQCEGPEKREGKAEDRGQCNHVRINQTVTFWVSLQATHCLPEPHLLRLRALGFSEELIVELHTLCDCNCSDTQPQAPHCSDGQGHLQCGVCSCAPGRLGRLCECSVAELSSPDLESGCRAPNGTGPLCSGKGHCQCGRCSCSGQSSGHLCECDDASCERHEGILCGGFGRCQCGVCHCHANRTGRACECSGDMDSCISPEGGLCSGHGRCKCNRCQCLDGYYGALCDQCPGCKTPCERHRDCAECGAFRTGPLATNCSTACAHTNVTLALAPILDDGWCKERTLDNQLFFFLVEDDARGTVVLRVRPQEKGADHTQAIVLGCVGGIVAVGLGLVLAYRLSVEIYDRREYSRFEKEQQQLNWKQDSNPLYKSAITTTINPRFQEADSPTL
Method: The selectivity was determined by dividing the IC50 value in the evaluation test for VCAM-1/α4β1 integrin binding inhibitory activity by the IC50 value in the evaluation test for MAdCAM-1/α4β7 integrin binding inhibitory activity. • (3) Evaluation Test (1) for MAdCAM-1/α4β7 Integrin Binding Inhibitory Activity in the Presence of Serum
The ability of test substances to inhibit the binding of RPMI-8866 cell line, a human B-cell line known to express α4β7 integrin, to MAdCAM-1 was examined.
A 96-well microtiter plate was coated overnight at 4° C. with a recombinant mouse MAdCAM-1/Fc (R&D systems) solution diluted with the buffer A (carbonate buffer, pH 9.6). After washing once with PBS, 150 μL/well of Block Ace (manufactured by Snow Brand Milk Products Co., Ltd.) was added, and it was incubated at room temperature for 2 hours. After removal, it was washed once with PBS.
100 μL of each of test substances and RPMI-8866 cells diluted with a binding buffer solution (DMEM containing 40 mM HEPES, 0.2% BSA, and 4 mM MnCl2) to various concentrations was added to the plate coated with MAdCAM-1/Fc, so that human serum was contained at a final concentration of 50%, and it was incubated at 30° C. for 15 minutes to 60 minutes. After the cells were bound to the wells, unbound cells were removed by washing with PBS. 50 μL/well of the buffer solution C (PBS containing 1.5% Triton X-100) was added to the plate to dissolve the bound RPMI-8866 cells. 30 μL of substrate buffer (Promega, CytoTox 96 Non-Radioactive Cytotoxicity Assay) was added to 30 μL of a cell lysate to allow a reaction for 30 minutes at room temperature in a dark place. 30 μL of stop solution (Promega, CytoTox 96 Non-Radioactive Cytotoxicity Assay) was added thereto to determine the absorbance at 490 nm using a plate reader. The absorbance was obtained herein by detecting the activity of lactate dehydrogenase (LDH) eluted in a supernatant of each well, that is, the absorbance is proportional to the number of RPMI-8866 cells remaining on the plate by being bound to MAdCAM-1. The test was duplicated, and the cell binding rate at various concentrations with the absorbance of the well containing no test substance being taken as 100% was determined, to calculate the concentration IC50 at which 50% of binding was inhibited.

| Compound | pIC50 |
| --- | --- |
| Cc1c(-c2ccc(C[C@H](NC(=O)c3cc(F)c(NS(=O)(=O)c4ccc(C5CCOCC5)cc4)cc3F)C(=O)O)cc2)c(=O)n(C)c(=O)n1C [Example 87, (2S)-2-[[2,5-Difluoro-4-[(4-tetrahydropyran-4-ylphenyl)sulfonylamino]benzoyl]amino]-3-[4-(1,3,4-trimethyl-2,6-dioxopyrimidin-5-yl)phenyl]propanoic acid] | < 6.70 |
| Cc1c(-c2ccc(C[C@H](NC(=O)c3cc(F)c(NS(=O)(=O)c4ccc(-c5cnc(C(C)C)nc5)cc4)cc3F)C(=O)O)cc2)c(=O)n(C)c(=O)n1C [Example 88] | 6.70 to 7.30 |
| Cc1c(-c2ccc(C[C@H](NC(=O)c3cc(F)c(NS(=O)(=O)c4ccc(-c5cnc(C6CCOCC6)nc5)cc4)cc3F)C(=O)O)nc2)c(=O)n(C)c(=O)n1C [Example 89, (2S)-2-[[2,5-Difluoro-4-[[4-(2-tetrahydropyran-4-ylpyrimidin-5-yl)phenyl]sulfonylamino]benzoyl]amino]-3-[5-(1,3,4-trimethyl-2,6-dioxopyrimidin-5-yl)-2-pyridyl]propanoic acid] | < 6.70 |
